# Article PMC8698932 (2021)
# What was measured:
# [1] = system: 22nt (DNA, i motif) CCCTAACCCTAACCCTAACCCT; assay: fluorescence titration (alkaloid quenching); conditions: 5 mM KCl; acetate 10 mM pH 5; overall constant of the 1:4 DNA:ligand model, not per site; non-specific binding possible
# [2] = system: nmyc01 (DNA, i motif) ACCCCCTGCATCTGCATGCCCCCTCCCACCCCCT; assay: 1H NMR titration (imino protons); conditions: Na+ (sodium phosphate); pH 5.0, 25 °C; hairpin Watson-Crick signals disappear at R = 0.25
# [3] = system: nmyc01 (DNA, i motif) ACCCCCTGCATCTGCATGCCCCCTCCCACCCCCT; assay: fluorescence titration (alkaloid quenching); conditions: 5 mM KCl; acetate 10 mM pH 5; overall constant of the 1:4 DNA:ligand model, not per site; non-specific binding possible
# [4] = system: nmyc01 (DNA, i motif) ACCCCCTGCATCTGCATGCCCCCTCCCACCCCCT; assay: CD melting, 287 nm; conditions: Na+ (0.2 M CH3COONa); acetate pH 5; 2 µM DNA, 8 µM compound
# [5] = system: nmyc01m (DNA, i motif) ACCCCCTGCATCTTTTTGCCCCCTCCCACCCCCT; assay: fluorescence titration (alkaloid quenching); conditions: 5 mM KCl; acetate 10 mM pH 5; overall constant of the 1:5 DNA:ligand model, not per site; non-specific binding possible
# [6] = system: nmyc01m (DNA, i motif) ACCCCCTGCATCTTTTTGCCCCCTCCCACCCCCT; assay: 1H NMR titration (imino protons); conditions: Na+ (sodium phosphate); pH 5.0, 25 °C; no change in imino resonances
# [7] = system: ckit21T12T21 (DNA, G4) CGGGCGGGCGCTAGGGAGGGT; assay: 1H NMR titration (imino and aromatic protons); conditions: 20 mM KCl; 5 mM KH2PO4 pH 6.9, 25 °C; stacks over external tetrads
# [8] = system: GG1 (DNA, G4) GGGCGGGCGCGAGGGAGGGT; assay: CD melting, 261 nm; conditions: 5 mM KCl; 10 mM KH2PO4 pH 7; 2 µM DNA, 8 µM compound
# [9] = system: 22nt (DNA, i motif) CCCTAACCCTAACCCTAACCCT; assay: CD melting, 287 nm; conditions: Na+ (0.2 M CH3COONa); acetate pH 5; 2 µM DNA, 8 µM compound
# [10] = system: nmyc01m (DNA, i motif) ACCCCCTGCATCTTTTTGCCCCCTCCCACCCCCT; assay: CD melting, 287 nm; conditions: Na+ (0.2 M CH3COONa); acetate pH 5; 2 µM DNA, 8 µM compound
# [11] = system: DL40 (DNA, G4) GGTTTTGGCAGGGTTTTGGT; assay: fluorescence titration (alkaloid quenching); conditions: 5 mM KCl; phosphate 10 mM pH 7; overall constant of the 1:4 DNA:ligand model, not per site; non-specific binding possible
# [12] = system: GG1 (DNA, G4) GGGCGGGCGCGAGGGAGGGT; assay: fluorescence titration (alkaloid quenching); conditions: 5 mM KCl; phosphate 10 mM pH 7; overall constant of the 1:5 DNA:ligand model, not per site; non-specific binding possible
# [13] = system: DL40 (DNA, G4) GGTTTTGGCAGGGTTTTGGT; assay: 1H NMR titration (imino and aromatic protons); conditions: 150 mM NaCl; sodium phosphate pH 6.8, 25 °C; new imino signals, single conformation at R ≥ 1.0
# [14] = system: 22nt (DNA, i motif) CCCTAACCCTAACCCTAACCCT; assay: 1H NMR titration (imino protons); conditions: Na+ (sodium phosphate); pH 5.0, 25 °C; only small insignificant imino changes
# [15] = system: DL40 (DNA, G4) GGTTTTGGCAGGGTTTTGGT; assay: CD melting, 291 nm; conditions: 5 mM KCl; 10 mM KH2PO4 pH 7; 2 µM DNA, 8 µM compound
structure (smiles),measurement,setting,value
COc1ccc2c(c1O)C[N+]1(C)CCc3cc4c(cc3C1C2)OCO4 (stereo not drawn),Log Ka,[1],17.64 ± 0.12
same,binding,[2],weak
same,Log Ka,[3],18.21 ± 0.17
same,ΔTm,[4],−0.3 °C
same,Log Ka,[5],22.61 ± 0.08
same,binding,[6],no
same,binding,[7],yes
same,ΔTm,[8],1.7 °C
same,ΔTm,[9],0.7 °C
same,ΔTm,[10],−0.6 °C
same,Log Ka,[11],18.46 ± 0.05
same,Log Ka,[12],22.39 ± 0.03
same,binding,[13],yes
same,binding,[14],no
same,ΔTm,[15],5.2 °C
